Laboratory results: PubChem BioAssay (NCI)
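GI50 is the concentration that inhibits growth by half. TGI denotes the concentration required for complete inhibition of growth.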

Legend:
Assay in all cases: NCI-60 cell line screen, 384-well format
[1] = tested on: BT-549 breast
[2] = tested on: OVCAR-5 ovarian
[3] = tested on: MCF7 breast
[4] = tested on: MDA-MB-435 melanoma
[5] = tested on: U251 glioblastoma
[6] = tested on: IGROV1 ovarian
[7] = tested on: MOLT-4 leukemia
[8] = tested on: UACC-62 melanoma
[9] = tested on: EKVX NSCLC
[10] = tested on: COLO 205 colon
[11] = tested on: HCT-15 colon
[12] = tested on: KM12 colon
[13] = tested on: SK-OV-3 ovarian
[14] = tested on: NCI-H23 lung
[15] = tested on: PC-3 prostate
[16] = tested on: A549 NSCLC
[17] = tested on: DU-145 prostate
[18] = tested on: MDA-MB-468 breast
[19] = tested on: NCI-H226 lung
[20] = tested on: SNB-75 CNS
[21] = tested on: SF-268 CNS
[22] = tested on: HCT-116 colon
[23] = tested on: HS 578T breast
[24] = tested on: HT29 colon
[25] = tested on: SNB-19 CNS
[26] = tested on: SR leukemia
[27] = tested on: M14 melanoma
[28] = tested on: OVCAR-8 ovarian

## C[C@@H]1Cc2c([nH]c3ccccc23)[C@@H](c2c(F)cc(NC3CN(CCCF)C3)cc2F)N1CC(F)(F)CO
[1]
  GI50: 1.44 µM
  TGI: 2.85 µM
[2]
  GI50: 4.09 µM
  TGI: 15.4 µM
[3]
  TGI: 1.41 µM
[4]
  GI50: 1.73 µM
  TGI: 3.11 µM
[5]
  GI50: 1.77 µM
  TGI: 3.32 µM
[6]
  GI50: 1.84 µM
  TGI: 4.33 µM
[7]
  GI50: 1.39 µM
  TGI: 2.68 µM
[8]
  GI50: 1.58 µM
  TGI: 2.95 µM
[9]
  GI50: 1.87 µM
  TGI: 6.39 µM
[10]
  GI50: 2.07 µM
  TGI: 3.56 µM
[11]
  GI50: 1.95 µM
  TGI: 3.74 µM
[12]
  GI50: 1.73 µM
  TGI: 3.16 µM
[13]
  GI50: 1.83 µM
  TGI: 3.91 µM
[14]
  GI50: 5.52 µM
  TGI: 16.9 µM
[15]
  GI50: 1.84 µM
  TGI: 3.88 µM
[16]
  GI50: 4.1 µM
  TGI: 14.5 µM
[17]
  GI50: 2.5 µM
  TGI: 6.5 µM
[18]
  GI50: 1.33 µM
  TGI: 2.75 µM
[19]
  GI50: 2.35 µM
  TGI: 7.78 µM
[20]
  GI50: 1.43 µM
  TGI: 3.22 µM
[21]
  GI50: 1.95 µM
  TGI: 4.11 µM
[22]
  GI50: 1.78 µM
  TGI: 3.21 µM
[23]
  GI50: 1.41 µM
  TGI: 2.73 µM
[24]
  GI50: 1.71 µM
  TGI: 3.13 µM
[25]
  GI50: 10.6 µM
  TGI: 22.4 µM
[26]
  GI50: 1.67 µM
  TGI: 3.03 µM
[27]
  GI50: 1.78 µM
  TGI: 3.17 µM
[28]
  GI50: 2.7 µM
